Each compound was assayed against T1, Bloom's syndrome protein (BLM) helicase (Homo sapiens, UniProt P54132) (assay: fluorescence polarization DNA-binding and unwinding assays, EMSA, malachite green ATPase assay with purified BLM642-1290; CD spectral change). Conditions: not given.
T1 construct: BLM 642-1290
Format: biochemical

T1 sequence (P54132 642-1290): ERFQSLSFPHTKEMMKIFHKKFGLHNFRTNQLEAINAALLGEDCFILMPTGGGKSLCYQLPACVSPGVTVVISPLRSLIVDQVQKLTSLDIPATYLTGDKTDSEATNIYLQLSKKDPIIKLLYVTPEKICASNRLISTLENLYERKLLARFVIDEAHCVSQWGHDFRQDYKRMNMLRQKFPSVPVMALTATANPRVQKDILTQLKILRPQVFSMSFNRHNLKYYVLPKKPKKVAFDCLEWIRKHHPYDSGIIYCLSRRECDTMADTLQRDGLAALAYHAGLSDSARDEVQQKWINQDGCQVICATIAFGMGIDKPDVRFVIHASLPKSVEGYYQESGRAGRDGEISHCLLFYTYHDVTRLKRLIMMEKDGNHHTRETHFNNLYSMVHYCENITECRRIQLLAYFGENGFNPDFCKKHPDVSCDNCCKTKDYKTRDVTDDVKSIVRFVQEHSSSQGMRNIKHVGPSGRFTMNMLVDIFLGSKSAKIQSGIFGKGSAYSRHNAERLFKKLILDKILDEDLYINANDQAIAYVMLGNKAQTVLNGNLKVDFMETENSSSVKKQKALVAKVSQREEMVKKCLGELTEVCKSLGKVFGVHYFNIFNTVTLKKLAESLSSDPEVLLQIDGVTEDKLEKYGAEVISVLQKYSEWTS

IC50 [µM] | Structure (SMILES)
< 10 | Cc1cc(C2(c3ccc(O)c(C)c3)OC(=O)c3ccccc32)ccc1O [AO/854, AO/854/43447428]

What follows are compounds tested against T1, Bloom's syndrome protein (BLM) helicase (assay: biochemical). Conditions: dsDNA binding; read-out: % of control remaining.
Parameters: fluorescence polarization; displacement of fluorescein-dsDNA bound to BLM642-1290; relative DNA binding activity
Description: First, fluorescein-labeled dsDNA (2 nM) was added into a reaction buffer (20 mM Tris, 25 mM NaCl, 3 mM MgCl2, 0.1 mM DTT, pH 7.9) to detect the fluorescence anisotropy until it was stable. Then, 500 nM BLM^642−1290 was added to equilibrate the DNA substrate, and the fluorescence anisotropy value was then detected. Finally, small molecules with a concentration of 10 μM were added, and the fluorescence anisotropy value was detected until it was stable. The total reaction volume was adjusted to 150 μL by adjusting with ddH2O volume. The ability of AO/854 to inhibit the ability of the BLM^642−1290 to bind to dsDNA and ssDNA was also assessed using a fluorescence polarization assay. The method used was similar to that described above, except different concentrations of AO/854 were added to the reaction. By using the same protocol, we detected AO/854 affecting DNA unwinding of BLM^642−1290. The 0–50 μM concentrations of AO/854 were added to the reaction. In the final step, 0.2 mM of ATP was added to the reaction. The fluorescence anisotropy value was detected until it was stable. The inhibiting ratio of BLM on DNA binding activity and DNA unwinding activity was determined. By using high-throughput virtual and protein-based screening assays, we discovered an isobenzofuranone compound with the desired properties. The flow chart of our work is as follows (Figure 2A). Before the first round of docking using the Autodock Vina, an optimized database (approximately 200,000 compounds) was achieved by filtering using Lipinski’s rule of five and Veber rules and removing duplicate molecules from the Specs database (Figure S1). The top 1000 compounds from the previous step were docked with Autodock (Figure S2). The top 30 small molecules (Table S1) obtained through virtual screening were dissolved in DMSO and prepared into mother liquor at a concentration of 20 mM. We purified a truncated structure of BLM that retained helicase activity in vitro (Figure S3), selected a fluorescein-labeled dsDNA as a substrate, and used a fluorescence polarization assay to determine if the promising compounds disrupted the binding between BLM and DNA.

remaining activity at 10 µM [%] | Structure (SMILES)
103 | CCCCC(OC(=O)c1ccc(N2C(=O)C3C4c5ccccc5C(c5ccccc54)C3C2=O)cc1)C(=O)c1ccc(-c2ccccc2)cc1 (centres unmarked) [compound 10]
97.3 | CC(=O)Nc1ccc(N2C(=O)c3ccc(C(=O)c4ccc5c(c4)C(=O)N(c4ccc(NC(C)=O)cc4)C5=O)cc3C2=O)cc1 [compound 28]

Second part, the compound before the results:

Structure (SMILES) | remaining activity at 10 µM [%]
O=[N+]([O-])c1ccc(S(=O)(=O)Oc2ccc(C3(c4ccc(OS(=O)(=O)c5ccc([N+](=O)[O-])cc5)cc4)c4ccccc4-c4ccccc43)cc2)cc1 [compound 1] | 98.9
Cc1cc(C2(c3ccc(O)c(C)c3)OC(=O)c3ccccc32)ccc1O [compound 2] | 31.5
Cc1ccc(-c2csc3nc(SCC(=O)Nc4cccc5ccccc45)n(-c4ccccc4)c(=O)c23)o1 [compound 3] | 94.9
Cc1ccc(-c2csc3nc(SCC(=O)Nc4ccc(C)c(C)c4)n(-c4ccccc4)c(=O)c23)o1 [compound 19] | 93.9
O=C1c2cc(S(=O)(=O)Nc3cccc4ccccc34)ccc2-c2ccc(S(=O)(=O)Nc3cccc4ccccc34)cc21 [compound 20] | 96.6

— publication PMC9736344, “Discovery of a Novel Bloom’s Syndrome Protein (BLM) Inhibitor Suppressing Growth and Metastasis of Prostate Cancer” (International Journal of Molecular Sciences, 2022)
